Measured values as given in PubChem BioAssay (NCI).
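Cells were grown in 96-well plates and exposed to each compound for 48 hours at five concentrations; endpoints were interpolated linearly between bracketing concentrations, or set to the highest concentration if not reached. GI50 is the concentration that inhibits growth by half. Definition used: TGI = concentration required for complete inhibition of growth.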

Assays:
Experiment in all cases: NCI-60 cell line screen, 48 h
A498 renal = tested on: A498 renal
ACHN renal = tested on: ACHN renal
EKVX NSCLC = tested on: EKVX NSCLC
MOLT-4 leukemia = tested on: MOLT-4 leukemia
NCI-H460 lung = tested on: NCI-H460 lung
RXF 393 renal = tested on: RXF 393 renal
SF-539 CNS = tested on: SF-539 CNS
U251 CNS = tested on: U251 CNS
UACC-257 melanoma = tested on: UACC-257 melanoma
HCC-2998 colon = tested on: HCC-2998 colon

Row | Compound | TGI (A498 renal) [µM] | TGI (ACHN renal) [µM] | TGI (EKVX NSCLC) [µM] | TGI (MOLT-4 leukemia) [µM] | TGI (NCI-H460 lung) [µM] | TGI (RXF 393 renal) [µM] | TGI (SF-539 CNS) [µM] | TGI (U251 CNS) [µM] | TGI (UACC-257 melanoma) [µM] | TGI (HCC-2998 colon) [µM] | GI50 (A498 renal) [µM] | GI50 (ACHN renal) [µM] | GI50 (EKVX NSCLC) [µM] | GI50 (HCC-2998 colon) [µM] | GI50 (NCI-H460 lung) [µM] | GI50 (RXF 393 renal) [µM] | GI50 (U251 CNS) [µM] | GI50 (UACC-257 melanoma) [µM] | GI50 (MOLT-4 leukemia) [µM] | GI50 (SF-539 CNS) [µM]
1 | COc1ccc(C2SC(N)=Nc3c2c(C)nn3C(=O)c2ccncc2)cc1 (stereo unspecified) | > 100 | > 100 | > 100 | > 100 | > 100 | > 100 | > 100 | > 100 | > 100 | – | – | – | – | – | – | – | – | – | – | –
2 | CCCOC(=O)C1CCC(=O)N1C(=O)C(Cl)Cl (stereo unspecified) | > 100 | > 100 | > 100 | > 100 | > 100 | – | – | > 100 | > 100 | > 100 | – | – | – | – | – | – | – | – | – | –
3 | CN(C)CCCn1cnc2ncccc2c1=O | – | > 100 | > 100 | > 100 | > 100 | > 100 | > 100 | > 100 | – | > 100 | – | – | – | – | – | – | – | – | – | –
4 | CCCCNC(=S)Nn1c(-c2ccccc2)nc2ccccc2c1=O | > 100 | > 100 | – | > 100 | > 100 | > 100 | > 100 | > 100 | > 100 | – | – | – | – | – | – | – | – | – | – | –
5 | COCCNC(=O)C1C(=O)N(CCOC)C(=O)/C1=N/N (stereo unspecified) | – | > 100 | > 100 | > 100 | – | – | > 100 | > 100 | > 100 | – | – | – | – | – | – | – | – | – | – | –
6 | CC(C)NC(=O)OCc1nnn2c1C(OC(=O)NC(C)C)CC2 (stereo unspecified) | – | – | > 100 | > 100 | > 100 | > 100 | > 100 | > 100 | > 100 | > 100 | – | – | – | – | – | – | – | – | – | –
7 | COc1cc([C@@H]2c3cc4c(cc3[C@H](OC3OC5COC(c6ccccc6)OC5C(O)C3O)[C@H]3COC(=O)[C@H]23)OCO4)cc(OC)c1OC (stereo partly specified) | 3.4 | 12.7 | 24.2 | – | 2.92 | 0.879 | – | 2.02 | 3.69 | 4.7 | 0.364 | 0.596 | 0.426 | 0.367 | 0.282 | 0.264 | 0.34 | 1.07 | – | –
8 | O=c1[nH]nc(-c2ccccc2)c(-c2ccccc2)c1-n1nc(-c2ccccc2)c2ccccc2c1=O | > 100 | > 100 | > 100 | 88.7 | > 100 | – | > 100 | > 100 | > 100 | > 100 | – | – | – | – | – | – | – | – | – | –
9 | COc1ccc(C(=O)CC2(O)C(=O)Nc3c(Cl)ccc(Cl)c32)cc1 (stereo unspecified) | 7.02 | > 100 | – | > 78.5 | 40.4 | > 100 | 6.96 | > 62.3 | > 100 | > 54 | 0.599 | 12.6 | – | 5.24 | 0.97 | 3.07 | 2.33 | 15.5 | 3.18 | 1.64
10 | CN1CCC(O)C(CNC23CC4CC(CC(C4)C2)C3)C1 (stereo unspecified) | > 100 | > 100 | > 100 | > 100 | > 100 | > 100 | > 100 | > 100 | > 100 | – | – | – | – | – | – | – | – | – | – | –
11 | CC(=O)OC1COC(N2C(=O)C(=O)c3c(C)cc(Cl)nc32)C(OC(C)=O)C1OC(C)=O (stereo unspecified) | > 100 | > 100 | > 100 | > 100 | > 100 | > 100 | > 100 | > 100 | > 100 | – | – | – | – | – | – | – | – | – | – | –
12 | O=C1CCCC1C(=O)Nc1ccc2ccccc2c1 (stereo unspecified) | > 100 | > 100 | > 100 | > 100 | > 100 | > 100 | – | > 100 | > 100 | > 100 | – | – | – | – | – | – | – | – | – | –
13 | CC(C)Oc1cc(OCC(=O)O)cc(C(=O)N(CCC(N)=O)C(=O)Nc2ccc(C(=O)O)cc2OC(C)C)c1 | > 100 | > 100 | – | > 100 | > 100 | > 100 | > 100 | > 100 | > 100 | > 100 | > 100 | > 100 | – | > 100 | > 100 | > 100 | > 100 | > 100 | > 100 | > 100
14 | FC(F)(F)c1ccc2nc(-c3nc(-c4ccccc4)n4ccccc34)[nH]c2c1 | 5.85 | 6.12 | – | > 100 | 11.2 | 6.98 | 3.38 | 4.03 | 46.2 | 22.4 | 1.69 | 2.23 | – | 5.98 | 2.93 | 2.64 | 1.98 | 13.1 | 28.3 | 1.69
15 | CCS[C@H]1NC(=O)C1[C@H](C)O[Si](C)(C)C(C)(C)C (stereo partly specified) | > 100 | > 100 | > 100 | – | > 100 | > 100 | > 100 | > 100 | > 100 | – | – | – | – | – | – | – | – | – | – | –
16 | CCOC(=O)c1cnc2ccc(Cl)cc2c1NCCCN(C)C | 37.8 | > 100 | – | 63.5 | 82.7 | – | 41.5 | – | 34.9 | > 100 | 15.6 | 9.85 | – | 38.4 | 22.2 | – | – | 17.3 | 16.3 | 17.4
17 | Cn1cc(-c2ccc3cc(-c4ccc(CC(=O)Nc5cc(C(C)(C)C)nn5C)cc4)cnc3c2)cn1 | 0.175 | > 100 | > 100 | > 100 | > 100 | – | 12.4 | > 100 | > 100 | > 100 | 0.0246 | 0.11 | 0.282 | 0.443 | 0.165 | – | 0.236 | 0.425 | 0.282 | 0.112
18 | CCN(CC)CCN(C)CC(C)(C)C(=O)/C=C/c1ccccc1 | 17.3 | 26.5 | 26.1 | 30.5 | 20.3 | – | 19 | 22.1 | 24.4 | 27.7 | – | – | – | – | – | – | – | – | – | –
19 | NC(=O)C/C=C/CC(N)=O | > 100 | > 100 | > 100 | – | > 100 | > 100 | > 100 | > 100 | > 100 | > 100 | – | – | – | – | – | – | – | – | – | –
